Active and inactive are the calls of the source. The rule behind the calls is not given here.
Columns and labels:
Assay type in all cases: functional, cell-based
HCT-116 [1] = assay: Induction of apoptosis in human HCT-116 cells assessed as downregulation of Survivin protein expression incubated for 48 hrs by Western blotting analysis
HCT-116 [2] = assay: Induction of apoptosis in human HCT-116 cells assessed as modulation of DDX19B mRNA expression at 10 to 500 nM incubated for 6 to 48 hrs by RNA analysis; details: dose 10-500 nM, time 6-48 hrs
HCT-116 [3] = assay: Induction of apoptosis in human HCT-116 cells assessed as modulation of DDX6 mRNA expression at 10 to 500 nM incubated for 6 to 48 hrs by RNA analysis; details: dose 10-500 nM, time 6-48 hrs
HCT-116 [4] = assay: Induction of apoptosis in human HCT-116 cells assessed as upregulation of ADCY6 mRNA expression at 10 to 500 nM incubated for 6 to 48 hrs by RNA analysis; details: dose 10-500 nM, time 6-48 hrs
HCT-116 [5] = assay: Induction of apoptosis in human HCT-116 cells assessed as increase in intracellular ROS level incubated for 48 hrs by DCFH-DA staining based fluorescence microscopy
HCT-116 [6] = assay: Induction of apoptosis in human HCT-116 cells assessed as downregulation of AAAS gene expression at 10 to 500 nM incubated for 6 to 48 hrs by RNA analysis; details: dose 10-500 nM, time 6-48 hrs
HCT-116 [7] = assay: Induction of apoptosis in human HCT-116 cells assessed as downregulation of TPI1 gene expression at 10 to 500 nM incubated for 6 to 48 hrs by RNA analysis; details: dose 10-500 nM, time 6-48 hrs
HCT-116 [8] = assay: Activation of innate immune response in human HCT-116 cells assessed as upregulation of IRF5 gene expression at 10 to 500 nM incubated for 6 to 48 hrs by RNA analysis; details: dose 10-500 nM, time 6-48 hrs
HCT-116 [9] = assay: Activation of innate immune response in human HCT-116 cells assessed as upregulation of IFIH1 gene expression at 10 to 500 nM incubated for 6 to 48 hrs by RNA analysis; details: dose 10-500 nM, time 6-48 hrs
HCT-116 [10] = assay: Induction of apoptosis in human HCT-116 cells assessed as downregulation of RFC3 mRNA expression at 10 to 500 nM incubated for 6 to 48 hrs by RNA analysis; details: dose 10-500 nM, time 6-48 hrs
HCT-116 [11] = assay: Induction of apoptosis in human HCT-116 cells assessed as upregulation of DDX5 mRNA expression at 50 nM incubated for 24 hrs by RNA analysis
HCT-116 [12] = assay: Induction of apoptosis in human HCT-116 cells assessed as upregulation of CDKN1A mRNA expression at 10 to 500 nM incubated for 6 to 48 hrs by RNA analysis; details: dose 10-500 nM, time 6-48 hrs
HCT-116 [13] = assay: Induction of apoptosis in human HCT-116 cells assessed as downregulation of PRIM1 mRNA expression at 10 to 500 nM incubated for 6 to 48 hrs by RNA analysis; details: dose 10-500 nM, time 6-48 hrs
HCT-116 [14] = assay: Induction of apoptosis in human HCT-116 cells assessed as downregulation of PPP2CA gene expression at 10 to 500 nM incubated for 6 to 48 hrs by RNA analysis; details: dose 10-500 nM, time 6-48 hrs
HCT-116 [15] = assay: Induction of apoptosis in human HCT-116 cells assessed as downregulation of BIRC5 mRNA expression at 10 to 500 nM incubated for 6 to 48 hrs by RNA analysis; details: dose 10-500 nM, time 6-48 hrs
HCT-116 [16] = assay: Induction of apoptosis in human HCT-116 cells assessed as downregulation of PRKACB gene expression at 10 to 500 nM incubated for 6 to 48 hrs by RNA analysis; details: dose 10-500 nM, time 6-48 hrs
HCT-116 [17] = assay: Induction of apoptosis in human HCT-116 cells assessed as downregulation of SLC25A13 gene expression at 10 to 500 nM incubated for 6 to 48 hrs by RNA analysis; details: dose 10-500 nM, time 6-48 hrs
MCF7 = assay: Growth inhibition of human MCF7 cells incubated for 48 hrs by MTT reagent based ELISA reader analysis; details: MCF7, 48 h
HCT-116 [18] = assay: Induction of apoptosis in human HCT-116 cells assessed as downregulation of AK2 gene expression at 10 to 500 nM incubated for 6 to 48 hrs by RNA analysis; details: dose 10-500 nM, time 6-48 hrs
HCT-116 [19] = assay: Induction of apoptosis in human HCT-116 cells assessed as downregulation of AMPD3 gene expression at 10 to 500 nM incubated for 6 to 48 hrs by RNA analysis; details: dose 10-500 nM, time 6-48 hrs
HCT-116 [20] = assay: Induction of apoptosis in human HCT-116 cells assessed as downregulation of SEH1L gene expression at 10 to 500 nM incubated for 6 to 48 hrs by RNA analysis; details: dose 10-500 nM, time 6-48 hrs
HCT-116 [21] = assay: Induction of apoptosis in human HCT-116 cells assessed as downregulation of PRKAR2B gene expression at 10 to 500 nM incubated for 6 to 48 hrs by RNA analysis; details: dose 10-500 nM, time 6-48 hrs
HCT-116 [22] = assay: Induction of apoptosis in human HCT-116 cells assessed as modulation of TOP3B mRNA expression at 10 to 500 nM incubated for 6 to 48 hrs by RNA analysis; details: dose 10-500 nM, time 6-48 hrs
HCT-116 [23] = assay: Induction of apoptosis in human HCT-116 cells assessed as modulation of DDX17 mRNA expression at 10 to 500 nM incubated for 6 to 48 hrs by RNA analysis; details: dose 10-500 nM, time 6-48 hrs
HCT-116 [24] = assay: Induction of apoptosis in human HCT-116 cells assessed as upregulation of USP11 mRNA expression at 10 to 500 nM incubated for 6 to 48 hrs by RNA analysis; details: dose 10-500 nM, time 6-48 hrs
HCT-116 [25] = assay: Induction of apoptosis in human HCT-116 cells assessed as downregulation of NUP133 gene expression at 10 to 500 nM incubated for 6 to 48 hrs by RNA analysis; details: dose 10-500 nM, time 6-48 hrs
HCT-116 [26] = assay: Induction of apoptosis in human HCT-116 cells assessed as downregulation of NT5C2 gene expression at 10 to 500 nM incubated for 6 to 48 hrs by RNA analysis; details: dose 10-500 nM, time 6-48 hrs
HCT-116 [27] = assay: Induction of apoptosis in human HCT-116 cells assessed as downregulation of NT5C gene expression at 10 to 500 nM incubated for 6 to 48 hrs by RNA analysis; details: dose 10-500 nM, time 6-48 hrs
HeLa = assay: Growth inhibition of human HeLa cells incubated for 48 hrs by MTT reagent based ELISA reader analysis
HCT-116 [28] = assay: Induction of apoptosis in human HCT-116 cells assessed as downregulation of DTYMK gene expression at 10 to 500 nM incubated for 6 to 48 hrs by RNA analysis; details: dose 10-500 nM, time 6-48 hrs
HCT-116 [29] = assay: Induction of apoptosis in human HCT-116 cells assessed as modulation of TOP3A mRNA expression at 10 to 500 nM incubated for 6 to 48 hrs by RNA analysis; details: dose 10-500 nM, time 6-48 hrs
HCT-116 [30] = assay: Induction of apoptosis in human HCT-116 cells assessed as downregulation of NUP43 gene expression at 10 to 500 nM incubated for 6 to 48 hrs by RNA analysis; details: dose 10-500 nM, time 6-48 hrs
HCT-116 [31] = assay: Induction of apoptosis in human HCT-116 cells assessed as downregulation of ADSL gene expression at 10 to 500 nM incubated for 6 to 48 hrs by RNA analysis; details: dose 10-500 nM, time 6-48 hrs
HCT-116 [32] = assay: Induction of apoptosis in human HCT-116 cells assessed as downregulation of BCL2 mRNA expression at 10 to 500 nM incubated for 6 to 48 hrs by RNA analysis; details: dose 10-500 nM, time 6-48 hrs

## CCc1ccc(-c2c3c(nc4cc5c(cc24)OCO5)-c2cc4c(c(=O)n2C3)COC(=O)[C@]4(O)CC)cc1
HCT-116 [1]
  Activity: Active
HCT-116 [2]
  Activity: Active
HCT-116 [3]
  Activity: Active
HCT-116 [4]
  Activity: Active
HCT-116 [5]
  Activity: Dose-Dependent Effect
HCT-116 [6]
  Activity: Active
HCT-116 [7]
  Activity: Active
HCT-116 [8]
  Activity: Active
HCT-116 [9]
  Activity: Active
HCT-116 [10]
  Activity: Active
HCT-116 [11]
  Activity: inactive
HCT-116 [12]
  Activity: Active
HCT-116 [13]
  Activity: Active
HCT-116 [14]
  Activity: Active
HCT-116 [15]
  Activity: Active
HCT-116 [16]
  Activity: Active
HCT-116 [17]
  Activity: Active
MCF7
  IC50: 0.0474 µM
HCT-116 [18]
  Activity: Active
HCT-116 [19]
  Activity: Active
HCT-116 [20]
  Activity: Active
HCT-116 [21]
  Activity: Active
HCT-116 [22]
  Activity: Active
HCT-116 [23]
  Activity: Active
HCT-116 [24]
  Activity: Active
HCT-116 [25]
  Activity: Active
HCT-116 [26]
  Activity: Active
HCT-116 [27]
  Activity: Active
HeLa
  IC50: 0.0375 µM
HCT-116 [28]
  Activity: Active
HCT-116 [29]
  Activity: Active
HCT-116 [30]
  Activity: Active
HCT-116 [31]
  Activity: Active
HCT-116 [32]
  Activity: Active
